From ChEMBL document CHEMBL1146191, “Synthesis and evaluation of novel 1-(2-acylhydrazinocarbonyl)-cycloalkyl carboxamides as interleukin-1beta converting enzyme (ICE) inhibitors” (Bioorg Med Chem Lett, 2006)

Columns and labels:
[1] = target: T1, Caspase-1 (Homo sapiens, UniProt P29466); experiment: Inhibition of ICE
T1 sequence (P29466 whole entry): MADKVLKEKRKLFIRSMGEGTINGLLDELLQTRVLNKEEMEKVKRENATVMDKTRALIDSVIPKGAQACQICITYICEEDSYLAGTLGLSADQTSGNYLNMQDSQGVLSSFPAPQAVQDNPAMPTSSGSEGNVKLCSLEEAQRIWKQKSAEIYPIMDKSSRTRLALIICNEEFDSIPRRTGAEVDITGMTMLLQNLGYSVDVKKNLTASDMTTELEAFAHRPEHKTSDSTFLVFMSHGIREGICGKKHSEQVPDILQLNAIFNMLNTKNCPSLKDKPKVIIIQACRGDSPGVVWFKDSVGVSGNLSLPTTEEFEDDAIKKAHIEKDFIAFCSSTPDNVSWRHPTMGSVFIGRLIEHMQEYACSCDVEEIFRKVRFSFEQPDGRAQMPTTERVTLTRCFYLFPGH

[2] = target: Caspase-8 (Homo sapiens, UniProt Q14790); experiment: Inhibition of caspase8
Chain of Caspase-8 (Q14790 217-374 limits assumed): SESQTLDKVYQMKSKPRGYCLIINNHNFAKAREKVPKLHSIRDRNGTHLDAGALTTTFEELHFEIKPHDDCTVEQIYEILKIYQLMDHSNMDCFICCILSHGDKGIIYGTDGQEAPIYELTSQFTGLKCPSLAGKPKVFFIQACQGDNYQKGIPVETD
Chain of Caspase-8 (Q14790 385-479 limits assumed): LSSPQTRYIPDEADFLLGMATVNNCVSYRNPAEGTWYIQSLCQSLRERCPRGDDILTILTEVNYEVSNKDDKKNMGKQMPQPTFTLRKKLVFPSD

[3] = target: T2, Caspase-3 (Homo sapiens, UniProt P42574); experiment: Inhibition of caspase3
T2 sequence (P42574 whole entry): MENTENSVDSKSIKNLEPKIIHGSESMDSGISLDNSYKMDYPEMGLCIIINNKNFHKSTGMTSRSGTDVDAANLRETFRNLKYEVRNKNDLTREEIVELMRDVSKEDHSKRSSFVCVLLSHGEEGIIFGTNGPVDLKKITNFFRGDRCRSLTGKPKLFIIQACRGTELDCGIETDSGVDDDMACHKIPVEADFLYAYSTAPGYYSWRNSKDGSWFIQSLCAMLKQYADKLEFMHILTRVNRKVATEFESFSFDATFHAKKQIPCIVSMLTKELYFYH

[4] = tested on: THP-1; experiment: Inhibition of IL1-beta secretion in human THP1 cells; type: functional, cell-based

Row | SMILES | IC50 [1] | IC50 [2] | IC50 [3] | IC50 [4]
1 | Cc1cccc(C(=O)NNC(=O)C2(C(=O)N[C@H]3CC(=O)OC3O)CCCC2)c1 (stereo not given in full) | 490 nM | 1200 nM | > 10000 nM | 2000 nM
2 | O=C1C[C@H](NC(=O)C2(C(=O)NNC(=O)c3ccc4ccccc4c3)CCC2)C(O)O1 (stereo not given in full) | 240 nM | 6300 nM | > 10000 nM | –
3 | O=C1C[C@H](NC(=O)C2(C(=O)NNC(=O)c3cccc4ccccc34)Cc3ccccc3C2)C(O)O1 (stereo not given in full) | 40 nM | 420 nM | > 10000 nM | 690 nM
4 | Cc1ccccc1C(=O)NNC(=O)C1(C(=O)N[C@H]2CC(=O)OC2O)CCC1 (stereo not given in full) | 310 nM | 310 nM | > 10000 nM | 610 nM
5 | Cc1ccc(C(=O)NNC(=O)C2(C(=O)N[C@H]3CC(=O)OC3O)CCC2)cc1 (stereo not given in full) | 580 nM | 4300 nM | > 10000 nM | 6900 nM
6 | Cc1cccc(C(=O)NNC(=O)C2(C(=O)N[C@H]3CC(=O)OC3O)CCC2)c1 (stereo not given in full) | 150 nM | 2700 nM | > 10000 nM | 620 nM
7 | O=C1C[C@H](NC(=O)C2(C(=O)NNC(=O)c3cccc4ccccc34)CCC2)C(O)O1 (stereo not given in full) | 50 nM | 130 nM | > 10000 nM | 470 nM
8 | COc1cccc(OC)c1C(=O)NNC(=O)C1(C(=O)N[C@H]2CC(=O)OC2O)CCCCC1 (stereo not given in full) | 700 nM | 300 nM | > 10000 nM | ≥ 2500 nM
9 | O=C1C[C@H](NC(=O)C2(C(=O)NNC(=O)c3ccc4ccccc4c3)CCCC2)C(O)O1 (stereo not given in full) | 150 nM | 3200 nM | > 10000 nM | 570 nM
10 | COc1cccc(C(=O)NNC(=O)C2(C(=O)N[C@H]3CC(=O)OC3O)CCCCC2)c1 (stereo not given in full) | 240 nM | 1800 nM | > 10000 nM | 1300 nM
11 | COc1cccc(C(=O)NNC(=O)C2(C(=O)N[C@H]3CC(=O)OC3O)CCC2)c1 (stereo not given in full) | 260 nM | 2200 nM | > 10000 nM | 400 nM
12 | CCO[C@@H]1OC(=O)C[C@@H]1NC(=O)[C@@H]1CCCN2C(=O)CC[C@H](NC(=O)c3nccc4ccccc34)C(=O)N12 [PRALNACASAN] | 3.6 nM | 40 nM | – | –

Now from value to molecule:

Row | IC50 [1] | IC50 [2] | IC50 [3] | IC50 [4] | SMILES
13 | 50 nM | 70 nM | > 10000 nM | 450 nM | O=C1C[C@H](NC(=O)C2(C(=O)NNC(=O)c3cccc4ccccc34)CCCCC2)C(O)O1 (stereo not given in full)
14 | ≥ 10000 nM | 230 nM | > 10000 nM | ≥ 2500 nM | Cc1cccc(C)c1C(=O)NNC(=O)C1(C(=O)N[C@H]2CC(=O)OC2O)CCCCC1 (stereo not given in full)
15 | 90 nM | 2600 nM | > 10000 nM | 790 nM | O=C1C[C@H](NC(=O)C2(C(=O)NNC(=O)c3ccc4ccccc4c3)CCCCC2)C(O)O1 (stereo not given in full)
16 | 30 nM | 2100 nM | > 10000 nM | 500 nM | O=C1C[C@H](NC(=O)C2(C(=O)NNC(=O)c3ccc4ccccc4c3)Cc3ccccc3C2)C(O)O1 (stereo not given in full)
17 | 2900 nM | ≥ 10000 nM | > 10000 nM | 6400 nM | O=C1C[C@H](NC(=O)C2(C(=O)NNC(=O)c3ccc4ccccc4c3)CC2)C(O)O1 (stereo not given in full)
18 | 40 nM | 90 nM | > 10000 nM | 480 nM | O=C1C[C@H](NC(=O)C2(C(=O)NNC(=O)c3cccc4ccccc34)CCCC2)C(O)O1 (stereo not given in full)
19 | 430 nM | 3900 nM | > 10000 nM | 470 nM | Cc1cccc(C(=O)NNC(=O)C2(C(=O)N[C@H]3CC(=O)OC3O)CCCCC2)c1 (stereo not given in full)
20 | 200 nM | 1170 nM | > 10000 nM | 550 nM | COc1cccc(C(=O)NNC(=O)C2(C(=O)N[C@H]3CC(=O)OC3O)CCCC2)c1 (stereo not given in full)
21 | ≥ 10000 nM | ≥ 10000 nM | > 10000 nM | ≥ 10000 nM | COc1cccc(C(=O)NNC(=O)C2(C(=O)N[C@H]3CC(=O)OC3O)CC2)c1 (stereo not given in full)
22 | 430 nM | 3120 nM | > 10000 nM | ≥ 2500 nM | Cc1cccc(C(=O)NNC(=O)C2(C(=O)N[C@H]3CC(=O)OC3O)Cc3ccccc3C2)c1 (stereo not given in full)
